Experimental data reported in patent publication US6677313B1, “Method for gene therapy using nucleic acid loaded polymeric microparticles” (Brown University Research Foundation, priority 1995, dated 2004).

Assay: in vivo
Settings: rat, serum, po, 25 mg/kg
Description: Dicumarol containing microspheres were produced as described above in Example 2, subsection 1. Equal doses of dicumarol, spray dried dicumarol and polyanhydride (FA:SA) 20:80 encapsulated dicumarol (25 mg drug/kg body weight) suspended in 1.5 ml maple syrup were fed to catheterized rats (250-350 g). Blood samples were taken at regular intervals and serum was assayed for dicumarol concentrations using a UV spectrophotometric method.

AUC: 171 ± 33.2 µg·h/mL | Cmax: 11500 ± 1100 ng/mL | Tmax: 9.87 ± 1.76 h | half-life: 18.2 ± 3.3 h
SMILES: O=c1oc2ccccc2c(O)c1Cc1c(O)c2ccccc2oc1=O [STOCK DICUMAROL CONTROL, dicumarol]
